Source: ChEMBL document CHEMBL2380214, “Novel hybrids of (phenylsulfonyl)furoxan and anilinopyrimidine as potent and selective epidermal growth factor receptor inhibitors for intervention of non-small-cell lung cancer” (J Med Chem, 2013)
The source made the active and inactive calls. No cut-off for these calls is given here.

Tests used:
Mus musculus = assay: Toxicity in athymic BALB/c nude mouse xenografted with gefitinib-resistant human NCI-H1975 cells harboring EGFR L858R/[…] double mutant assessed as body mass loss at 14 mg/kg, ip qd administered for 14 days measured every other day during compound administration relative to vehicle-treated control; type: organism-based; set-up: dose 14 mg/kg, route intraperitoneal; conditions: in vivo, 336 h
NCI-H1975 [1] = assay: Antitumor activity against gefitinib-resistant human NCI-H1975 cells harboring EGFR L858R/[…] double mutant xenografted in athymic BALB/c nude mouse assessed as tumor growth inhibition at 14 mg/kg, ip qd administered for 14 days measured every other day during compound administration relative to vehicle-treated control; type: functional; conditions: 336 h, route intraperitoneal, read-out: TGI
NCI-H1975 [2] = assay: Inhibition of NFkappaB phosphorylation in gefitinib-resistant human NCI-H1975 cells harboring EGFR L858R/[…] double mutant at 0.01 to 1 uM after 24 hrs by Western blot analysis; type: cell-based
[3] = tested on: Epidermal growth factor receptor (Homo sapiens), P00533 [L858R,T790M]; assay: Inhibition of EGFR L858R/[…] double mutant phosphorylation in gefitinib-resistant human NCI-H1975 cells assessed as inhibition of ERK phosphorylation after 24 hrs by Western blot analysis; type: cell-based
Chain of Epidermal growth factor receptor (Homo sapiens), P00533 [L858R,T790M] (P00533 whole entry T790M/L858R, looked up): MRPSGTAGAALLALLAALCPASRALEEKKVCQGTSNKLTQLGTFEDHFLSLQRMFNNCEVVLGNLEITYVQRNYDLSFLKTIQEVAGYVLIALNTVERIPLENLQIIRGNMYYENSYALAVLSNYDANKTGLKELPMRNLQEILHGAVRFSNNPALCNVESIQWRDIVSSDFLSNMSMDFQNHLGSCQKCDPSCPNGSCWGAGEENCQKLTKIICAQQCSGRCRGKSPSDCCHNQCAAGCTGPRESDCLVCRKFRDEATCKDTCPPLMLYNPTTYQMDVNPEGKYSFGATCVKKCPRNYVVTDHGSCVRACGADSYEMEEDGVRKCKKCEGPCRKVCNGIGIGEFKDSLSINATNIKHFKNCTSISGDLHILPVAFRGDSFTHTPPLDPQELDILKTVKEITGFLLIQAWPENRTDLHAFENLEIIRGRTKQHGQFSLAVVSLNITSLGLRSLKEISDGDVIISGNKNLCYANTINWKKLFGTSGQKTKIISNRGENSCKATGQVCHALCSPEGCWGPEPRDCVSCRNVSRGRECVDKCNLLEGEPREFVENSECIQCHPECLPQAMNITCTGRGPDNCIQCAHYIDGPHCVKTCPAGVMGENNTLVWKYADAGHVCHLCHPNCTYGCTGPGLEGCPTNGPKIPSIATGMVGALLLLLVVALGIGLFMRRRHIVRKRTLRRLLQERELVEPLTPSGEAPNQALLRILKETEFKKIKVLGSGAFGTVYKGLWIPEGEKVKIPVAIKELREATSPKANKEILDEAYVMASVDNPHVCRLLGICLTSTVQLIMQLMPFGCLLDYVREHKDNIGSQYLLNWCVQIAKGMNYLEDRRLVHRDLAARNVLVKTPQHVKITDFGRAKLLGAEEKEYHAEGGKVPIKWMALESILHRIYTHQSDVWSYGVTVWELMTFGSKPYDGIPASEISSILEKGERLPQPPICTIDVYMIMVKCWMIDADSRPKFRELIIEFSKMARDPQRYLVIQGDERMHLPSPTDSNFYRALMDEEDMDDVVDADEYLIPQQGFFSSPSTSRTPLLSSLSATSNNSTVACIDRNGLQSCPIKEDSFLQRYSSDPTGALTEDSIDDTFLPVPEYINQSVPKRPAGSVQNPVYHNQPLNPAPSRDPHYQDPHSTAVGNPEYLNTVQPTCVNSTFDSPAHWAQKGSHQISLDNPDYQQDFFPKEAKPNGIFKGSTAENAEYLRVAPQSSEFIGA

[4] = tested on: Epidermal growth factor receptor (Homo sapiens), P00533 [L858R,T790M]; assay: Inhibition of EGFR L858R/[…] double mutant phosphorylation in gefitinib-resistant human NCI-H1975 cells assessed as inhibition of AKT phosphorylation after 24 hrs by Western blot analysis; type: cell-based
[5] = tested on: Epidermal growth factor receptor (Homo sapiens), P00533 [L858R,T790M]; assay: Inhibition of EGFR L858R/[…] double mutant phosphorylation in gefitinib-resistant human NCI-H1975 cells after 24 hrs by Western blot analysis; type: cell-based
[6] = Induction of apoptosis in EGFR-independent human H460 cells at 1 to 5 uM after 24 hrs by annexin-V/7-AAD staining-based FACS flow cytometric analysis; type: cell-based; conditions: nci-h460, 24 h
HCC827 [7] = assay: Induction of apoptosis in gefitinib-sensitive human HCC827 cells harboring EGFR […] deletion mutant after 24 hrs by annexin-V/7-AAD staining-based FACS flow cytometric analysis; type: functional, cell-based
NCI-H1975 [8] = assay: Induction of apoptosis in gefitinib-resistant human NCI-H1975 cells harboring EGFR L858R/[…] double mutant after 24 hrs by annexin-V/7-AAD staining-based FACS flow cytometric analysis; type: functional, cell-based
NCI-H1975 [9] = assay: Cytotoxicity against gefitinib-resistant human NCI-H1975 cells harboring EGFR L858R/[…] double mutant assessed as growth inhibition at 1 uM after 24 hrs by MTT assay in presence of hemoglobin; type: functional, cell-based
HCC827 [10] = assay: Cytotoxicity against gefitinib-sensitive human HCC827 cells harboring EGFR […] deletion mutant assessed as growth inhibition at 1 uM after 24 hrs by MTT assay in presence of hemoglobin; type: functional, cell-based
[11] = Induction of NO production in human 16HBE14o- cells harboring wild type EGFR assessed as increase in nitrite level at 100 uM after 150 mins by Griess assay; type: cell-based; conditions: 2.5 h
NCI-H1975 [12] = assay: Induction of NO production in human NCI-H1975 cells harboring EGFR L858R/[…] double mutant assessed as increase in nitrite level at 100 uM after 150 mins by Griess assay; type: functional, cell-based
[13] = Selectivity ratio of IC50 for human 16HBE14o- cells harboring wild type EGFR to IC50 for gefitinib-resistant human NCI-H1975 cells harboring EGFR L858R/[…] double mutant; type: ADME, cell-based; conditions: read-out: Ratio IC50
[14] = Selectivity ratio of IC50 for human 16HBE14o- cells harboring wild type EGFR to IC50 for gefitinib-sensitive human HCC827 cells harboring EGFR […] deletion mutant; type: ADME, cell-based; conditions: read-out: Ratio IC50
[15] = Selectivity ratio of IC50 for human BEAS2B cells harboring wild type EGFR to IC50 for gefitinib-resistant human NCI-H1975 cells harboring EGFR L858R/[…] double mutant; type: ADME, cell-based; conditions: read-out: Ratio IC50
[16] = Selectivity ratio of IC50 for human BEAS2B cells harboring wild type EGFR to IC50 for gefitinib-sensitive human HCC827 cells harboring EGFR […] deletion mutant; type: ADME, cell-based; conditions: read-out: Ratio IC50
[17] = Selectivity ratio of IC50 for human A431 cells overexpressing wild type EGFR to IC50 for gefitinib-resistant human NCI-H1975 cells harboring EGFR L858R/[…] double mutant; type: ADME, cell-based
[18] = Selectivity ratio of IC50 for human A431 cells overexpressing wild type EGFR to IC50 for gefitinib-sensitive human HCC827 cells harboring EGFR […] deletion mutant; type: ADME, cell-based
[19] = Selectivity ratio of IC50 for human A549 cells harboring wild type EGFR and k-RAS mutation to IC50 for gefitinib-resistant human NCI-H1975 cells harboring EGFR L858R/[…] double mutant; type: ADME, cell-based
[20] = Selectivity ratio of IC50 for human A549 cells harboring wild type EGFR and k-RAS mutation to IC50 for gefitinib-sensitive human HCC827 cells harboring EGFR […] deletion mutant; type: ADME, cell-based
cells [21] = type: ADME, cell-based; conditions: Homo sapiens, 16HBE14o-, 72 h
Description: Cytotoxicity against human 16HBE14o- cells harboring wild type EGFR assessed as growth inhibition after 72 hrs by MTT assay

cells [22] = type: ADME, cell-based; conditions: Homo sapiens, BEAS-2B, 72 h
Description: Cytotoxicity against human BEAS2B cells harboring wild type EGFR assessed as growth inhibition after 72 hrs by MTT assay

A-431 [23] = assay: cells; type: ADME, cell-based; conditions: Homo sapiens, A-431, 72 h
Description: Cytotoxicity against human A431 cells overexpressing wild type EGFR assessed as growth inhibition after 72 hrs by MTT assay

A549 [24] = assay: cells; type: ADME, cell-based; conditions: Homo sapiens, A549, 72 h
Description: Cytotoxicity against human A549 cells harboring wild type EGFR and k-RAS mutation assessed as growth inhibition after 72 hrs by MTT assay

NCI-H1975 [25] = assay: Cytotoxicity against gefitinib-resistant human NCI-H1975 cells harboring EGFR L858R/[…] double mutant assessed as growth inhibition after 72 hrs by MTT assay; type: functional, cell-based; conditions: NCI-H1975, 72 h
[26] = biological target: Epidermal growth factor receptor (Homo sapiens, UniProt P00533)
Chain of Epidermal growth factor receptor (Homo sapiens, UniProt P00533) (P00533 whole entry): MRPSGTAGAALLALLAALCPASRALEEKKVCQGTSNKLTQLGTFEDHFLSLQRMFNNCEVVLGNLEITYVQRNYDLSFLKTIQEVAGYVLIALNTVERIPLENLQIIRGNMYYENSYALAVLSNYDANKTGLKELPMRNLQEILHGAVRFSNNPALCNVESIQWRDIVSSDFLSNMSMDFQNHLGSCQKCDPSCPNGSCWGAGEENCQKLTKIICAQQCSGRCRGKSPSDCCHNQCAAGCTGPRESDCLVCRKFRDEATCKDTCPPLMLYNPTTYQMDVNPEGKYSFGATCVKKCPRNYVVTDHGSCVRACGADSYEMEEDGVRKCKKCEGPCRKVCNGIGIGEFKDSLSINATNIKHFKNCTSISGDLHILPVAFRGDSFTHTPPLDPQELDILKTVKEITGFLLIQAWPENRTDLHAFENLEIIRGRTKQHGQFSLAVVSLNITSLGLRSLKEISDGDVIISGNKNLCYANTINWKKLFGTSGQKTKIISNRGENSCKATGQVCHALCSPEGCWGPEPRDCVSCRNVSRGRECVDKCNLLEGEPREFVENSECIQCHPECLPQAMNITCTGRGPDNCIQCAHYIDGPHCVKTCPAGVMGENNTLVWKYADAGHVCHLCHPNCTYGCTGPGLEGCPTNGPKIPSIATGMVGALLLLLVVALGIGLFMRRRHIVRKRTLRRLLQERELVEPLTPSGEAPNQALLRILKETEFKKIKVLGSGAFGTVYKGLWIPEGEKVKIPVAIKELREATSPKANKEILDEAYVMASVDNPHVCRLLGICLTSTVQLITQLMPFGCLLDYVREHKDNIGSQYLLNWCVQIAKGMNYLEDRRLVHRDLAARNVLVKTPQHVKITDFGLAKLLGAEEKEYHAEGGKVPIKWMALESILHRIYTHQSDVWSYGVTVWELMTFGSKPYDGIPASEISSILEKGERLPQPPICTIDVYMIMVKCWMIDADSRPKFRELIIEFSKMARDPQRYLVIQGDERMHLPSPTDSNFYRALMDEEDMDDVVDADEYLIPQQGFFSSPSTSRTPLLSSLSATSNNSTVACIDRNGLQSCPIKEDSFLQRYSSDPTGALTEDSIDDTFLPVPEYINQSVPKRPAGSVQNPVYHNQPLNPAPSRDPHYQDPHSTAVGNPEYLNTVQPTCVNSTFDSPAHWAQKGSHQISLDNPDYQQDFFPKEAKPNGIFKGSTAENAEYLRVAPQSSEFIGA
Description: Inhibition of wild type EGFR (unknown origin) after 1.5 hrs by FRET-based Z'Lyte assay

cells [27] = type: functional, cell-based; conditions: Homo sapiens, HCC827, 72 h
[28] = biological target: Epidermal growth factor receptor (Homo sapiens, UniProt P00533, L858R/T790M); type: protein assay
Chain of Epidermal growth factor receptor (Homo sapiens, UniProt P00533, L858R/T790M) (P00533 25-1210 T790M/L858R limits assumed): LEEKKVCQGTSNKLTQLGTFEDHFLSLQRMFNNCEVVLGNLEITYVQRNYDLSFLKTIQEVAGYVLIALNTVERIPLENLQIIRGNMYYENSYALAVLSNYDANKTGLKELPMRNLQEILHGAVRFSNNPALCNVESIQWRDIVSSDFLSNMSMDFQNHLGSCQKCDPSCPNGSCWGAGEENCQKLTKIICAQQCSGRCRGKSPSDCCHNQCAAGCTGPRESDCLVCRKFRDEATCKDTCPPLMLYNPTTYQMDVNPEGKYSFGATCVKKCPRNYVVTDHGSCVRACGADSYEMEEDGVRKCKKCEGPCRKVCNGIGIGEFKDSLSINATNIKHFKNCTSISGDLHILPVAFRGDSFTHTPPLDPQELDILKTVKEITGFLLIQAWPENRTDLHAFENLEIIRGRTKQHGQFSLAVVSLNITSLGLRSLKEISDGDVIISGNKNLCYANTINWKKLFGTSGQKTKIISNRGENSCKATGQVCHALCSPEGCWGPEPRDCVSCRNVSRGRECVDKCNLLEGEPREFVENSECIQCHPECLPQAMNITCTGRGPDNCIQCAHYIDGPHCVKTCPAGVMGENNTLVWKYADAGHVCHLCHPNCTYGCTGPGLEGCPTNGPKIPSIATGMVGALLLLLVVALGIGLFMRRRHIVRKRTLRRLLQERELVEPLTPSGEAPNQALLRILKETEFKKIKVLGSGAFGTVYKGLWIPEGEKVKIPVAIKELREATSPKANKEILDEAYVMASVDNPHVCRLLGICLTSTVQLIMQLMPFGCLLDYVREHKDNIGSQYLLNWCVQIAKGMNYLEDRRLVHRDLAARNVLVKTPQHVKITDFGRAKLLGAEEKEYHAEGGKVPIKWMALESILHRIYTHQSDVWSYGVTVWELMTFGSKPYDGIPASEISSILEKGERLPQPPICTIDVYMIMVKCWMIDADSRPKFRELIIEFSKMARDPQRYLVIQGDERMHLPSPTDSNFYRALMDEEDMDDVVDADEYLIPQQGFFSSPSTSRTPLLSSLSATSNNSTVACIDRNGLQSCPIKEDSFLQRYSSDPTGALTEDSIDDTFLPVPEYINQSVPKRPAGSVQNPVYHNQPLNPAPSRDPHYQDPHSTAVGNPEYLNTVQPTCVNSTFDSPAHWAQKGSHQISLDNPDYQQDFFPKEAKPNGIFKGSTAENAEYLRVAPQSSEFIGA
Description: Inhibition of EGFR L858R/T790M double mutant (unknown origin) after 1.5 hrs by FRET-based Z'Lyte assay

[29] = biological target: Epidermal growth factor receptor (Homo sapiens, UniProt P00533, L858R); type: protein assay
Chain of Epidermal growth factor receptor (Homo sapiens, UniProt P00533, L858R) (P00533 25-1210 L858R limits assumed): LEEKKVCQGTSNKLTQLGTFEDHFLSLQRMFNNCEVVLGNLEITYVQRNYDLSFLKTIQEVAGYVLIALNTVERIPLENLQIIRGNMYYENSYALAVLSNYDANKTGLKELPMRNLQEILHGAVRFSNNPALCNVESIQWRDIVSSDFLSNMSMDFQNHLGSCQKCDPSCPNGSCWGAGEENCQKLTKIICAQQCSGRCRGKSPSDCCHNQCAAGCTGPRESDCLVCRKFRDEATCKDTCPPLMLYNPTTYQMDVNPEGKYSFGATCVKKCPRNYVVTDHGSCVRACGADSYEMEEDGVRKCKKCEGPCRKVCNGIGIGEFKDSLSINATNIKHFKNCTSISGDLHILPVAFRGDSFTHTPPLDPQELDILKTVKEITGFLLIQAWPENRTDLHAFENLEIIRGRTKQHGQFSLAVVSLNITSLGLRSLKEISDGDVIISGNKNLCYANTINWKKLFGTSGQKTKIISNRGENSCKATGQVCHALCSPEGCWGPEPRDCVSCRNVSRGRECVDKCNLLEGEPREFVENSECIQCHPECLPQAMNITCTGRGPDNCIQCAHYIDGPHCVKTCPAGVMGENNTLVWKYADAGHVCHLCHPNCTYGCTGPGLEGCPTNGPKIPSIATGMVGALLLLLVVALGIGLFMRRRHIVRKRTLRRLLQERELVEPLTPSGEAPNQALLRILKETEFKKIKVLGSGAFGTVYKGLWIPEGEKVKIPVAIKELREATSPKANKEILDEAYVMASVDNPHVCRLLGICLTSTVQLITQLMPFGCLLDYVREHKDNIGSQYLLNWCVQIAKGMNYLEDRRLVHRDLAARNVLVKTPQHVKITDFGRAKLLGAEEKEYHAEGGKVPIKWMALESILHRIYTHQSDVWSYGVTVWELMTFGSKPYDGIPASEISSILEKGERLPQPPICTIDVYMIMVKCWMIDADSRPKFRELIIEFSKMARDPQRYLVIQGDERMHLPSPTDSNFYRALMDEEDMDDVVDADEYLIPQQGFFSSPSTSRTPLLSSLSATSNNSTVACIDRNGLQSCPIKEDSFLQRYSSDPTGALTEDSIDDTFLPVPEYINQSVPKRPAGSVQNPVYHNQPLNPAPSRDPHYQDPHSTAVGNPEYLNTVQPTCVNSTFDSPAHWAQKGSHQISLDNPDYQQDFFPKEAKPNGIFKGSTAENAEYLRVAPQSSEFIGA
Description: Inhibition of EGFR L858R mutant (unknown origin) after 1.5 hrs by FRET-based Z'Lyte assay

A549 [30] = assay: Ratio of compound IC50 to WZ4002 IC50 for human A549 cells harboring wild type EGFR and k-RAS mutation; type: ADME, cell-based
A-431 [31] = assay: Ratio of compound IC50 to WZ4002 IC50 for human A431 cells overexpressing wild type EGFR; type: ADME, cell-based
[32] = Ratio of compound IC50 to WZ4002 IC50 for human BEAS2B cells harboring wild type EGFR; type: ADME, cell-based; conditions: read-out: Ratio IC50

C=CC(=O)Nc1cccc(Oc2nc(Nc3ccc(N4CCN(CC(=O)OCCCCCCOc5no[n+]([O-])c5S(=O)(=O)c5ccccc5)CC4)cc3OC)ncc2Cl)c1
Activity (Mus musculus): Non-toxic | inhibition in vivo at 14 mg/kg (NCI-H1975 [1]): 60% | inhibition (NCI-H1975 [2]): Active | inhibition [3]: Dose-dependent effect | inhibition [4]: Dose-dependent effect | inhibition [5]: Dose-dependent effect | Activity [6]: Non-toxic | Activity (HCC827 [7]): Dose-dependent effect | Activity (NCI-H1975 [8]): Dose-dependent effect | growth inhibition (GI) (NCI-H1975 [9]): inactive | growth inhibition (GI) (HCC827 [10]): inactive | Activity [11]: Non-toxic | Activity (NCI-H1975 [12]): Active | selectivity ratio [13]: 40 | selectivity ratio [14]: 40 | selectivity ratio [15]: 40 | selectivity ratio [16]: 40 | Ratio IC50 [17]: 60 | Ratio IC50 [18]: 60 | Ratio IC50 [19]: 60 | Ratio IC50 [20]: 60 | IC50 (cells [21]): 23.9 µM | IC50 (cells [22]): 44.6 µM | IC50 (A-431 [23]): 5.67 µM | IC50 (A549 [24]): > 50 µM | IC50 (NCI-H1975 [25]): 0.029 µM | IC50 [26]: 0.292 µM | IC50 (cells [27]): 0.007 µM | IC50 [28]: 0.047 µM | IC50 [29]: 0.305 µM | Ratio IC50 (A549 [30]): 5 | Ratio IC50 (A-431 [31]): 5 | selectivity ratio [32]: 5
